Data set [1] has as its system human retinal endothelial cells (HRECs). The data set can be described thus: Inner blood retinal barrier: HREC monolayer permeability to FITC-dextran. It counts as cell-based. Conditions: for p < 0.05 (HREC permeability versus diabetic milieu): IL-β, after 90 min. The text has this:
(§1) The mechanisms of actions involved in the anti-permeability effect of the tested treatments were explored by assessing permeability to fluorescent dextran and proinflammatory cytokines production using their mRNA expression levels by RT-PCR.
Inner Blood Retinal Barrier conditions: primary human retinal endothelial cells (HRECs) were obtained from a vial of cryopreserved cells purchased from Innoprot (Vizcay, Spain). These cells were isolated from human retinal tissue of cadaveric eyes digested with 0.1 mg/mL collagenase type I at 37° C. for 1 hour. Then, endothelial cells were finally selected with CD31 antibody-coated magnetic beads (DynaBeads; Dynal, Oslo, Norway). HRECs were thawed in the laboratory and cultured in endothelial basal medium (EBM) containing, 5.5 mM D-glucose, 5% FBS (Fetal Bovine Serum), 100 U/mL penicillin, 100 μg/mL streptomycin, and ECG (Endothelial Cell Growth Supplement) supplement (Innoprot, Vizcay, Spain). Human fibronectin (MerckMillipore, Madrid, Spain) at 5 μg/mL was used for cell attachment. Cells at passages 2-3 will be used for the experiments. For experimentation, HRECs were grown to confluence and then cell culture media was changed to medium supplemented with 1% FBS for 24 h and then exposed to different treatments.
Conditions treatments: The same conditions specified for the experiment in ARPE-19 cells were used.
Measurement of HREC permeability: Permeability in HREC monolayers were obtained on permeable supports at 12×10^5 cells/well (24 wells, PCF filters, Merk Millipore). Inserts were incubated for 48 hours at 37° C. in 5% CO2-air to form the monolayer. At the end, medium was serum depleted 24 h before to proceed with the treatments. The lower chamber was filled with 600 μL of complete EBM medium and the upper chamber with 100 μL of cell suspension in serum depleted (1%).
To detect changes in the permeability, 100 μg/ml of fluorescent FITC-DEXTRAN (Sigma, Madrid, Spain), was added to the upper side of the insert. Aliquots of 200 μL from the basal compartment was read in a SpectraMax Gemini (Molecular Devices, Sunnyvale, Calif.) at a wavelength of excitation/emission 485/528 nm every 30 min. Finally, the concentration of dextran was determined by extrapolation of the fluorescence reads in a standard curve. Each condition was tested in triplicate.

A further data set relates to ARPE-19 cells. The data set is described as follows: Outer blood retinal barrier: ARPE-19 monolayer permeability to FITC-dextran. It counts as cell-based, human. The settings on record: for p < 0.05 (ARPE19 permeability versus diabetic milieu): IL-β, after 90 min.
Description: as §1
Outer Blood Retinal Barrier conditions: human retinal pigment epithelial cells (RPE) cultures ARPE-19, a spontaneously immortalised human RPE cell line were obtained from American Type Culture Collection (Manassas, Va., USA). ARPE-19 cells and they were cultured in euglycaemic conditions (D-glucose (D-Glc), 5.5 mmol/L) and hyperglycaemic conditions (D-glucose, 25 mmol/L) for 18 days at 37° C. under 5% (vol./vol.) CO2 in medium (DMEM/F12) supplemented with 10% (vol./vol.) FBS (Hyclone; Thermo Fisher Scientific, UT, USA) and 1% (vol./vol.) penicillin/streptomycin (Hyclone; Thermo Fisher Scientific). ARPE-19 cells from passage 20 were used and the medium changed every 3-4 days. For permeability studies, ARPE-19 cells were seeded at 400,000 cells/ml (80,000 RPE cells/well) in 0.33 cm^2 HTS-Transwells (Costar; Corning, N.Y., USA). For real-time PCR, western blot analysis and immunofluorescence cells are seeded at 20,000 cells/ml.
Experimental conditions and treatments: apart from the euglycemic condition, eighteen different conditions were tested in cells cultured under 25 mmol/L D-glucose:
Condition 2) Cells are treated with diabetic milieu 25 mM D-Glucose+vehicle (days 15, 16 and 17 at one application/day) in order to evaluate their effect in preventing the cell damage provoked by the diabetic milieu.
Condition 9) Cells were treated with 25 mM D-Glucose and bevacizumab (0.2 mg/ml) for 72 h (days 15, 16 and 17 at one application/day) to evaluate their potential cytotoxic effects.
Condition 10)=Diabetic milieu; cells were treated with 25 mM D-Glucose+[…] (10 ng/ml)+TNF-α (25 ng/ml)+VEGF (25 ng/ml), for 48 h (days 16 and 17 at one application/day) in order to provoke the disruption of the monolayer.
Condition 17) Cells are treated with diabetic milieu (25 mM D-Glucose+IL-1β (10 ng/ml)+TNF-α (25 ng/ml)+VEGF (25 ng/ml))+bevacizumab (0.2 mg/mL) (days 15, 16 and 17 at one application/day) in order to evaluate their effect in preventing the cell damage provoked by the diabetic milieu.
Measurement of ARPE-19 permeability: The permeability of RPE cells was determined at 18 days by measuring the apical-to basolateral movements of FITC-dextran (40 kDa) (Sigma, St Louis, […]., USA) following a procedure previously reported by Villarroel et al. Exp Eye Res, 2009, 89, 913-920.

[2] abbreviates: No 3-5: 25 mM D-Gluc + compound 25 μg/mL.
Where [3] appears, read: No 6-8: 25 mM D-Gluc + compound 50 μg/mL + VEGF, TNF-α, IL-β (so in the source).
Where [4] appears, read: No 11-13: 25 mM D-Gluc + compound 25 μg/mL + VEGF, TNF-α, IL-β (diabetic milieu).
The mark [5] stands for this setting: No 11-13: compound 25 μg/mL + VEGF, TNF-α.
The mark [6] stands for this setting: No 14-16: 25 mM D-Gluc + compound 50 μg/mL + VEGF, TNF-α, IL-β (diabetic milieu).
The mark [7] stands for this setting: No 14-16: compound 50 μg/mL + VEGF, TNF-α.
Where [8] appears, read: No 6-8: 25 mM D-Gluc + compound 50 μg/mL + VEGF, TNF-α, (so in the source).
[9] abbreviates: No 11-13: 25 mM D-Gluc + compound 25 μg/mL + VEGF, TNF-α, (diabetic milieu).
Setting [10] is: No 14-16: 25 mM D-Gluc + compound 50 μg/mL + VEGF, TNF-α, (diabetic milieu).

Take `O=C(O)c1cc(O)cc(CS(=O)(=O)Cc2cc(O)cc(C(=O)O)c2O)c1O` [IVc-059a, 3-((2,5-Dihydroxy-3-carboxyphenyl)methylsulfonylmethyl)-2,5-dihydroxybenzoic acid]: the “% permeability HREC” value in data set [1] (setting [2]) was 109.9 ± 24.7%; in data set [1] (setting [3]), 135.4 ± 6.7%; in data set [1] (setting [4]), 124.0 ± 6.3%; in data set [1] (setting [6]), 115.3 ± 14.7%. Also, the “p < 0.05 (HREC permeability versus diabetic milieu)” value was “* (* p < 0.05 for FITC dextran leakage measured after 90 min in [ng/mL/cm^2] in comparison with diabetic milieu (25 mM D-Gluose + VEGF, TNF-α, IL-β))” in data set [1] (setting [5]) and “* (* p < 0.05 for FITC dextran leakage measured after 90 min in [ng/mL/cm^2] in comparison with diabetic milieu (25 mM D-Gluose + VEGF, TNF-α, IL-β))” in data set [1] (setting [7]). Besides, the “% permeability ARPE19” value in the data set with ARPE-19 cells (setting [2]) was 70.2 ± 8.8%; with ARPE-19 cells (setting [8]), 112.6 ± 19.8%; in the data set with ARPE-19 cells (setting [9]) it was 98.5 ± 36.5%; with ARPE-19 cells (setting [10]) it was 130.4 ± 24.8%. Further, the “p < 0.05 (ARPE19 permeability versus diabetic milieu)” value in the data set with ARPE-19 cells (setting [5]) was “* (* p < 0.05 for FITC dextran leakage measured after 90 min in [ng/mL/cm^2] in comparison with diabetic milieu (25 mM D-Gluose + VEGF, TNF-α, IL-β))”.

As for `O=C(O)c1cc(NC(=O)c2cc(O)c(C(=O)Nc3ccc(O)c(C(=O)O)c3)cc2O)ccc1O` [Ic-007a, 5-(4-(3-carboxy-4-hydroxyphenylaminocarbonyl)-2,5-dihydroxybenzamido)-2-hydroxy benzoic acid], the “% permeability HREC” value in data set [1] (setting [2]) amounted to 126.3 ± 8.3%; in data set [1] (setting [3]), 127.4 ± 2.1%; in data set [1] (setting [4]) it was 111.6 ± 24.2%; in data set [1] (setting [6]), 159.0 ± 23.9%. Moreover, the “p < 0.05 (HREC permeability versus diabetic milieu)” value in data set [1] (setting [5]) was “* (* p < 0.05 for FITC dextran leakage measured after 90 min in [ng/mL/cm^2] in comparison with diabetic milieu (25 mM D-Gluose + VEGF, TNF-α, IL-β))”. For the same molecule, the “% permeability ARPE19” value in the data set on ARPE-19 cells (setting [2]) is recorded as 75.2 ± 11.1%; in the data set on ARPE-19 cells (setting [8]), 107.3 ± 43.9%; with ARPE-19 cells (setting [9]) it was 103.7 ± 15.7%; with ARPE-19 cells (setting [10]) it was 127.1 ± 13.5%. The “p < 0.05 (ARPE19 permeability versus diabetic milieu)” value in the data set with ARPE-19 cells (setting [5]) was “* (* p < 0.05 for FITC dextran leakage measured after 90 min in [ng/mL/cm^2] in comparison with diabetic milieu (25 mM D-Gluose + VEGF, TNF-α, IL-β))”; with ARPE-19 cells (setting [7]) it was “* (* p < 0.05 for FITC dextran leakage measured after 90 min in [ng/mL/cm^2] in comparison with diabetic milieu (25 mM D-Gluose + VEGF, TNF-α, IL-β))”.

With `O=C(O)c1cc(NC(=O)c2cc(O)cc(C(=O)Nc3ccc(O)c(C(=O)O)c3)c2O)ccc1O` [IIc-007a, 5-(3-(3-carboxy-4-hydroxyphenylaminocarbonyl)-2,5-dihydroxybenzamido)-2-hydroxy benzoic acid], the “% permeability HREC” value in data set [1] (setting [2]) is 136.3 ± 16.7%; in data set [1] (setting [3]) it was 147.7 ± 17.6%; in data set [1] (setting [4]), 135.8 ± 16.6%; in data set [1] (setting [6]), 145.2 ± 8.8%. Further, in data set [1] (setting [5]), the “p < 0.05 (HREC permeability versus diabetic milieu)” value is “* (* p < 0.05 for FITC dextran leakage measured after 90 min in [ng/mL/cm^2] in comparison with diabetic milieu (25 mM D-Gluose + VEGF, TNF-α, IL-β))”. The “% permeability ARPE19” value came out at 66.1 ± 4.9% with ARPE-19 cells (setting [2]), 113.1 ± 11.4% with ARPE-19 cells (setting [8]), 114.7 ± 19.0% in the data set on ARPE-19 cells (setting [9]) and 136.8 ± 13.0% in the data set on ARPE-19 cells (setting [10]). Also, the “p < 0.05 (ARPE19 permeability versus diabetic milieu)” value is “* (* p < 0.05 for FITC dextran leakage measured after 90 min in [ng/mL/cm^2] in comparison with diabetic milieu (25 mM D-Gluose + VEGF, TNF-α, IL-β))” in the data set on ARPE-19 cells (setting [5]) and “* (* p < 0.05 for FITC dextran leakage measured after 90 min in [ng/mL/cm^2] in comparison with diabetic milieu (25 mM D-Gluose + VEGF, TNF-α, IL-β))” in the data set with ARPE-19 cells (setting [7]).

The values above are taken from US20230150951A1, “2,5- OR 2,6-DISUBSTITUTED HYDROQUINONE DERIVATIVES WITH AT LEAST ONE CARBOXY, SULFO OR AMIDO GROUP USEFUL AS MEDICAMENTS” (OM PHARMA SA, priority 2020, published 2023).
